Experimental data taken from PMC8667612 (Journal of medicinal chemistry, 2021).
Several values for one entry are separate records, joined by “and”; a condition that tells them apart may be missing. Equal values may be shown once.

Legend:
N. fowleri CYP51 [1] = target: T1, N. fowleri CYP51 (Naegleria fowleri, UniProt A0A6A5BCR7, E4K/I5A/S2A, form not given); conditions: read-out: IC50 (1 h reaction)
N. fowleri CYP51 [2] = target: T1, N. fowleri CYP51; format: biochemical; conditions: 0.5 μM P450, 60 s at 37 °C, sterol 3–50 μM

## O=C(N[C@@H](Cn1ccnc1)c1ccc(-c2ccc(F)cc2)cc1F)c1ccc(-c2nnc(-c3ccccc3)o2)cc1 [VFV, (R)-N-(1-(3,4’-difluoro-[1,1’-biphenyl]-4-yl)-2-(1H-imidazol-1-yl)-ethyl)-4-(5-phenyl-1,3,4-oxadiazol-2-yl)benzamide]
N. fowleri CYP51 [1]
  IC50: 0.68 µM

## O=C(N[C@@H](Cn1ccnc1)c1ccc(-c2ccc(F)cc2)cc1Cl)c1ccc(-c2nnc(-c3ccccc3)o2)cc1 [VFV-Cl, (R)-N-(1-(3-chloro-4’-fluoro-[1,1’-biphenyl]-4-yl)-2-(1H-imidazol-1-yl)ethyl)-4-(5-phenyl-1,3,4-oxadiazol-2-yl)benzamide]
N. fowleri CYP51 [1]
  IC50: 5.9 µM and 5.94 µM

## C[C@@H](c1nc(-c2ccc(C#N)cc2)cs1)[C@](O)(Cn1cncn1)c1cc(F)ccc1F [isavuconazole, reference compound]
N. fowleri CYP51 [1]
  IC50: 0.96 µM

## CC(C)=CCC[C@@H](C)[C@H]1CC[C@@]2(C)C3=C(CC[C@]12C)[C@@]1(C)CC[C@H](O)C(C)(C)[C@@H]1CC3 [lanosterol]
N. fowleri CYP51 [2]
  Km: 48 ± 10 µM

## C=C(CC[C@@H](C)[C@H]1CC[C@@]2(C)C3=C(CC[C@]12C)[C@@]1(C)CC[C@H](O)[C@@H](C)[C@@H]1CC3)C(C)C [obtusifoliol]
N. fowleri CYP51 [2]
  Km: 8 ± 1 µM
